Experimental data reported in ChEMBL document CHEMBL3112509, “Synthesis and antimicrobial activity of (1,4-phenylene)bis(arylsulfonylpyrazoles and isoxazoles)” (2014).
In brackets after ≈: the same amount, converted by molar mass. Activity calls are given as the source filed them. The rule behind the calls is not given here.

Tests used:
Type in all cases: functional
Bacillus subtilis [1] = assay: Antibacterial activity against Bacillus subtilis after 24 hrs by broth dilution test
Klebsiella pneumoniae [2] = assay: Antibacterial activity against Klebsiella pneumoniae at 100 ug/well after 24 hrs by agar well diffusion method; settings: read-out: DIZ
Penicillium chrysogenum [3] = assay: Antifungal activity against Penicillium chrysogenum after 48 hrs by broth dilution test
Penicillium chrysogenum [4] = assay: Antifungal activity against Penicillium chrysogenum at 50 ug/well after 48 hrs by agar well diffusion method; settings: read-out: DIZ
Klebsiella pneumoniae [5] = assay: Antibacterial activity against Klebsiella pneumoniae after 24 hrs by broth dilution test
Staphylococcus aureus [6] = assay: Antibacterial activity against Staphylococcus aureus at 50 ug/well after 24 hrs by agar well diffusion method; settings: read-out: DIZ
Aspergillus niger [7] = assay: Antifungal activity against Aspergillus niger after 48 hrs
Staphylococcus aureus [8] = assay: Antibacterial activity against Staphylococcus aureus after 24 hrs
Bacillus subtilis [9] = assay: Antibacterial activity against Bacillus subtilis after 24 hrs
Aspergillus niger [10] = assay: Antifungal activity against Aspergillus niger at 100 ug/well after 48 hrs by agar well diffusion method; settings: read-out: DIZ
Penicillium chrysogenum [11] = assay: Antifungal activity against Penicillium chrysogenum after 48 hrs
Penicillium chrysogenum [12] = assay: Antifungal activity against Penicillium chrysogenum at 100 ug/well after 48 hrs by agar well diffusion method; settings: read-out: DIZ
Aspergillus niger [13] = assay: Antifungal activity against Aspergillus niger at 50 ug/well after 48 hrs by agar well diffusion method; settings: read-out: DIZ
Bacillus subtilis [14] = assay: Antibacterial activity against Bacillus subtilis at 50 ug/well after 24 hrs by agar well diffusion method; settings: read-out: DIZ
Staphylococcus aureus [15] = assay: Antibacterial activity against Staphylococcus aureus after 24 hrs by broth dilution test
Pseudomonas aeruginosa [16] = assay: Antibacterial activity against Pseudomonas aeruginosa after 24 hrs
Pseudomonas aeruginosa [17] = assay: Antibacterial activity against Pseudomonas aeruginosa at 100 ug/well after 24 hrs by agar well diffusion method; settings: for zone of inhibition at 100 µg/disc: read-out: DIZ
Pseudomonas aeruginosa [18] = assay: Antibacterial activity against Pseudomonas aeruginosa at 50 ug/well after 24 hrs by agar well diffusion method; settings: for zone of inhibition at 50 µg/disc: read-out: DIZ
Pseudomonas aeruginosa [19] = assay: Antibacterial activity against Pseudomonas aeruginosa after 24 hrs by broth dilution test
Bacillus subtilis [20] = assay: Antibacterial activity against Bacillus subtilis at 100 ug/well after 24 hrs by agar well diffusion method; settings: read-out: DIZ
Klebsiella pneumoniae [21] = assay: Antibacterial activity against Klebsiella pneumoniae at 50 ug/well after 24 hrs by agar well diffusion method; settings: read-out: DIZ
Staphylococcus aureus [22] = assay: Antibacterial activity against Staphylococcus aureus at 100 ug/well after 24 hrs by agar well diffusion method; settings: read-out: DIZ
Klebsiella pneumoniae [23] = assay: Antibacterial activity against Klebsiella pneumoniae after 24 hrs
Aspergillus niger [24] = assay: Antifungal activity against Aspergillus niger after 48 hrs by broth dilution test

Structure (SMILES) | zone of inhibition at 100 µg/disc (Klebsiella pneumoniae [2]) | zone of inhibition at 50 µg/disc (Penicillium chrysogenum [4]) | zone of inhibition at 50 µg/disc (Staphylococcus aureus [6]) | zone of inhibition at 100 µg/disc (Aspergillus niger [10]) | zone of inhibition at 100 µg/disc (Penicillium chrysogenum [12]) | zone of inhibition at 50 µg/disc (Aspergillus niger [13]) | zone of inhibition at 50 µg/disc (Bacillus subtilis [14]) | zone of inhibition at 100 µg/disc (Pseudomonas aeruginosa [17]) | zone of inhibition at 50 µg/disc (Pseudomonas aeruginosa [18]) | zone of inhibition at 100 µg/disc (Bacillus subtilis [20]) | zone of inhibition at 50 µg/disc (Klebsiella pneumoniae [21]) | zone of inhibition at 100 µg/disc (Staphylococcus aureus [22]) | diameter of the inhibition zone (DIZ) (Pseudomonas aeruginosa [17]) | diameter of the inhibition zone (DIZ) (Pseudomonas aeruginosa [18]) | also measured
O=S(=O)(c1ccc(Cl)cc1)c1c(-c2ccc(Cl)cc2)noc1-c1ccc(-c2onc(-c3ccc(Cl)cc3)c2S(=O)(=O)c2ccc(Cl)cc2)cc1 | 34 mm | 35 mm | 32 mm | 33 mm | 37 mm | 30 mm | 35 mm | 27 mm | 25 mm | 38 mm | 32 mm | 34 mm | – | – | MIC (Bacillus subtilis [1]): 12.5 µg/mL (≈ 16 µM); MIC (Penicillium chrysogenum [3]): 25 µg/mL (≈ 31.9 µM); MIC (Klebsiella pneumoniae [5]): 25 µg/mL (≈ 31.9 µM); MFC (Aspergillus niger [7]): 100 µg/mL (≈ 128 µM); MBC (Staphylococcus aureus [8]): 50 µg/mL (≈ 63.9 µM); MBC (Bacillus subtilis [9]): 25 µg/mL (≈ 31.9 µM); MFC (Penicillium chrysogenum [11]): 50 µg/mL (≈ 63.9 µM); MIC (Staphylococcus aureus [15]): 12.5 µg/mL (≈ 16 µM); MBC (Pseudomonas aeruginosa [16]): 50 µg/mL (≈ 63.9 µM); MIC (Pseudomonas aeruginosa [19]): 12.5 µg/mL (≈ 16 µM); MBC (Klebsiella pneumoniae [23]): 100 µg/mL (≈ 128 µM); MIC (Aspergillus niger [24]): 12.5 µg/mL (≈ 16 µM)
Cc1ccc(S(=O)(=O)c2c(-c3ccc(Cl)cc3)nn(-c3ccccc3)c2-c2ccc(-c3c(S(=O)(=O)c4ccc(C)cc4)c(-c4ccc(Cl)cc4)nn3-c3ccccc3)cc2)cc1 | 23 mm | 26 mm | 24 mm | 26 mm | 29 mm | 22 mm | 28 mm | 18 mm | 15 mm | 30 mm | 21 mm | 26 mm | – | – | –
O=S(=O)(c1ccc(Cl)cc1)C1C(c2ccc(Cl)cc2)=NN(c2ccccc2)C1c1ccc(C2C(S(=O)(=O)c3ccc(Cl)cc3)C(c3ccc(Cl)cc3)=NN2c2ccccc2)cc1 (stereo not drawn) | 13 mm | 18 mm | 11 mm | 15 mm | 20 mm | 13 mm | 13 mm | – | – | 16 mm | 10 mm | 14 mm | inactive | inactive | –
COc1ccc(-c2nn(-c3ccccc3)c(-c3ccc(-c4c(S(=O)(=O)c5ccc(Cl)cc5)c(-c5ccc(OC)cc5)nn4-c4ccccc4)cc3)c2S(=O)(=O)c2ccc(Cl)cc2)cc1 | 17 mm | 24 mm | 18 mm | 27 mm | 26 mm | 25 mm | 23 mm | 16 mm | 14 mm | 25 mm | 15 mm | 20 mm | – | – | –
Cc1ccc(S(=O)(=O)C2C(c3ccc(Cl)cc3)=NOC2c2ccc(C3ON=C(c4ccc(Cl)cc4)C3S(=O)(=O)c3ccc(C)cc3)cc2)cc1 (stereo not drawn) | 12 mm | 17 mm | 12 mm | 17 mm | 21 mm | 15 mm | 16 mm | – | – | 18 mm | 10 mm | 15 mm | inactive | inactive | –
O=S(=O)(c1ccccc1)C1C(c2ccc(Cl)cc2)=NN(c2ccccc2)C1c1ccc(C2C(S(=O)(=O)c3ccccc3)C(c3ccc(Cl)cc3)=NN2c2ccccc2)cc1 (stereo not drawn) | 12 mm | 15 mm | 11 mm | 15 mm | 18 mm | 13 mm | 12 mm | – | – | 14 mm | 10 mm | 13 mm | inactive | inactive | –
O=S(=O)(c1ccccc1)c1c(-c2ccc(Cl)cc2)nn(-c2ccccc2)c1-c1ccc(-c2c(S(=O)(=O)c3ccccc3)c(-c3ccc(Cl)cc3)nn2-c2ccccc2)cc1 | 23 mm | 27 mm | 23 mm | 27 mm | 30 mm | 24 mm | 28 mm | 19 mm | 17 mm | 31 mm | 21 mm | 25 mm | – | – | –
COc1ccc(-c2nn(-c3ccccc3)c(-c3ccc(-c4c(S(=O)(=O)c5ccc(C)cc5)c(-c5ccc(OC)cc5)nn4-c4ccccc4)cc3)c2S(=O)(=O)c2ccc(C)cc2)cc1 | 15 mm | 22 mm | 15 mm | 21 mm | 24 mm | 19 mm | 20 mm | 13 mm | 11 mm | 22 mm | 13 mm | 18 mm | – | – | –
COc1ccc(C2=NOC(c3ccc(C4ON=C(c5ccc(OC)cc5)C4S(=O)(=O)c4ccc(Cl)cc4)cc3)C2S(=O)(=O)c2ccc(Cl)cc2)cc1 (stereo not drawn) | 11 mm | 16 mm | 9 mm | 16 mm | 19 mm | 14 mm | 13 mm | – | – | 15 mm | 9 mm | 12 mm | inactive | inactive | –
CC(=O)N1CCN(c2ccc(OCC3COC(Cn4ccnc4)(c4ccc(Cl)cc4Cl)O3)cc2)CC1 (stereo not drawn) [KETOCONAZOLE] | – | 36 mm | – | 36 mm | 38 mm | 33 mm | – | – | – | – | – | – | – | – | MIC (Penicillium chrysogenum [3]): 12.5 µg/mL (≈ 23.5 µM); MIC (Aspergillus niger [24]): 6.25 µg/mL (≈ 11.8 µM)
O=C(N[C@H](CO)[C@H](O)c1ccc([N+](=O)[O-])cc1)C(Cl)Cl [CHLORAMPHENICOL] | 42 mm | – | 33 mm | – | – | – | 34 mm | 30 mm | 27 mm | 38 mm | 40 mm | 35 mm | – | – | MIC (Bacillus subtilis [1]): 6.25 µg/mL (≈ 19.3 µM); MIC (Klebsiella pneumoniae [5]): 12.5 µg/mL (≈ 38.7 µM); MIC (Staphylococcus aureus [15]): 6.25 µg/mL (≈ 19.3 µM); MIC (Pseudomonas aeruginosa [19]): 6.25 µg/mL (≈ 19.3 µM)
